Reference: patent EP1746087A1, “Derivates of 3-indolylmethylene having cytostatic properties” (Universitaet Regensburg, priority 2005, dated 2007)
Like-named read-outs stand apart in the source and are kept apart here.

Key:
Type in all cases: cell-based, menschlich
[1] = test system: MDA-MB-231-Brustkrebszellen; assay: Growth inhibition of MDA-MB-231 breast cancer cells in vitro (cytostatic effect); details: MDA-MB-231 cells, read-out: IC50 Hemmwirkung auf das Wachstum
Text: (§1) Die cytostatische Wirkung der erfindungsgemäßen Verbindungen wurde an zwei verschiedenen menschlichen Mammacarcinomzellinien in vitro bestimmt (M. Goldbrunner et al., J.Med.Chem. 1997,40,3525). Es handelt sich dabei um die hormonunabhängige MDA-MB-231-Zellinie und die estrogensensitive MCF-7-Linie. Die MDA-MB-231-Zellen wurden auch für die durchflusszytometrischen Analysen zur Zellzyklusverteilung herangezogen (M.J.J. Jaroszeski und R. Heller, Flow Cytometry Protocols, Humana Press, 1998, Totowa New Jersey). Besonders überraschend war, dass diese synthetischen Verbindungen häufig bereits im Konzentrationsbereich von 10 bis 100 nanomolar das Wachstum von menschlichen Tumorzellen stark hemmen, obwohl sie nur ein relativ niedriges Molekulargewicht aufweisen (MG ~ 320 - 500) (Tabelle 2 und 3, Abb. 2). Potente Therapeutika, die ebenfalls in den Zellzyklus eingreifen, besitzen Molekulargewichte im Bereich von 825 (Vincristin als Base) und 850 (Paclitaxel).

[2] = test system: MCF-7-Mammacarcinomzellen; assay: Growth inhibition of MCF-7 mammary carcinoma cells in vitro (cytostatic effect); details: MCF-7 cells, read-out: IC50 Hemmwirkung auf das Wachstum
Text: as §1

[3] = test system: MDA-MB-231-Mammacarcinomzellen; assay: Flow-cytometric analysis of cell cycle distribution
Text: as §1

SMILES | IC50 [1] [nM] | IC50 [2] [nM] | Debris % ([3]; Konz. 0.01 µM) [%] | G1/G0 % ([3]; Konz. 0.01 µM) [%] | G2/M % ([3]; Konz. 0.01 µM) [%] | S % ([3]; Konz. 0.01 µM) [%] | Debris % ([3]; Konz. 0.05 µM) [%] | G1/G0 % ([3]; Konz. 0.05 µM) [%] | G2/M % ([3]; Konz. 0.05 µM) [%] | S % ([3]; Konz. 0.05 µM) [%] | Debris % ([3]; Konz. 0.1 µM) [%] | G1/G0 % ([3]; Konz. 0.1 µM) [%] | G2/M % ([3]; Konz. 0.1 µM) [%] | S % ([3]; Konz. 0.1 µM) [%] | Debris % ([3]; Konz. 0.5 µM) [%] | G1/G0 % ([3]; Konz. 0.5 µM) [%] | G2/M % ([3]; Konz. 0.5 µM) [%] | S % ([3]; Konz. 0.5 µM) [%] | IC50 ([1]; Homo sapiens) [nM] | IC50 ([2]; Homo sapiens, MCF7) [nM] | other results
CCCCc1ccc2[nH]c(-c3ccc(C(F)(F)F)cc3)c(C=NC)c2c1 [Verbindung 19, 5-n-Butyl-2-[4-(trifluormethyl)-phenyl]-indol-3-carbaldehyd-methylimin] | 32 | 140 | 4.4 | 43.8 | 36.6 | 14.0 | 14.6 | 38.9 | 30.8 | 15.3 | 27.1 | 5.5 | 59.3 | 7.2 | 20.5 | 6.3 | 59.8 | 11.1 |  |  | 
CCCCc1ccc2[nH]c(-c3ccc(C(F)(F)F)cc3)c(C=NNC(=O)c3cccnc3)c2c1 [Verbindung 25, 5-Butyl-2-[4-(trifluormethyl)-phenyl]-indol-3-carbaldehyd-nicotinylhydrazone] | 97 | 260 | 2.3 | 50.8 | 26.3 | 21.7 | 2.7 | 51.2 | 24.1 | 23.1 | 2.6 | 48.8 | 24.9 | 24.4 | 6.9 | 11.4 | 75.2 | 11.0 |  |  | 
COc1ccc(-c2[nH]c3ccc(C)cc3c2C=C(C#N)C#N)cc1 [Verbindung 1, [2-(4-Methoxyphenyl)-5-methyl-indol-3-yl]-methylenpropandinitril] |  |  |  |  |  |  |  |  |  |  |  |  |  |  | 7.8 | 41.0 | 32.0 | 19.2 | 280 | 200 | Debris % ([3]; Konz. 1.0 µM): 16.4%; G1/G0 % ([3]; Konz. 1.0 µM): 16.9%; G2/M % ([3]; Konz. 1.0 µM): 45.4%; S % ([3]; Konz. 1.0 µM): 21.3%; Debris % ([3]; Konz. 5.0 µM): 6.4%; G1/G0 % ([3]; Konz. 5.0 µM): 9.8%; G2/M % ([3]; Konz. 5.0 µM): 57.7%; S % ([3]; Konz. 5.0 µM): 26.1%
CCCCc1ccc2[nH]c(-c3ccc(OC)cc3)c(C=NO)c2c1 [Verbindung 20, 5-n-Butyl-2-(4-methoxyphenyl)-indol-3-carbaldehyd-oxim] |  |  |  |  |  |  | 7.3 | 50.0 | 30.0 | 13.2 | 12.2 | 38.6 | 34.9 | 14.4 | 9.6 | 9.0 | 64.6 | 14.4 | 40 | 210 | Debris % ([3]; Konz. 1.0 µM): 13.8%; G1/G0 % ([3]; Konz. 1.0 µM): 9.6%; G2/M % ([3]; Konz. 1.0 µM): 54.8%; S % ([3]; Konz. 1.0 µM): 21.2%
